Calls of active or inactive are those of the source.

Consider 24 compounds from ChEMBL document CHEMBL1201862, “PubChem BioAssay data set” (2004).

Data set [1] is described as follows: HepG2 cell cytotoxicity, dose response, cytotoxicity control for non-replicating M. tuberculosis project (AID 489018). Type of data set: functional. Particulars: Mycobacterium tuberculosis.
Data set [2] in a line: THP-1 cell cytotoxicity, dose response, cytotoxicity control for non-replicating M. tuberculosis project (AID 489025). The class given is functional.
The target in data set [3] is Voltage-dependent T-type calcium channel subunit alpha-1H (Homo sapiens, UniProt O95180). The class given is functional.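 Note: channel activity triggered by adding a high calcium stimulation buffer.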
Voltage-dependent T-type calcium channel subunit alpha-1H, sequence (O95180 whole entry): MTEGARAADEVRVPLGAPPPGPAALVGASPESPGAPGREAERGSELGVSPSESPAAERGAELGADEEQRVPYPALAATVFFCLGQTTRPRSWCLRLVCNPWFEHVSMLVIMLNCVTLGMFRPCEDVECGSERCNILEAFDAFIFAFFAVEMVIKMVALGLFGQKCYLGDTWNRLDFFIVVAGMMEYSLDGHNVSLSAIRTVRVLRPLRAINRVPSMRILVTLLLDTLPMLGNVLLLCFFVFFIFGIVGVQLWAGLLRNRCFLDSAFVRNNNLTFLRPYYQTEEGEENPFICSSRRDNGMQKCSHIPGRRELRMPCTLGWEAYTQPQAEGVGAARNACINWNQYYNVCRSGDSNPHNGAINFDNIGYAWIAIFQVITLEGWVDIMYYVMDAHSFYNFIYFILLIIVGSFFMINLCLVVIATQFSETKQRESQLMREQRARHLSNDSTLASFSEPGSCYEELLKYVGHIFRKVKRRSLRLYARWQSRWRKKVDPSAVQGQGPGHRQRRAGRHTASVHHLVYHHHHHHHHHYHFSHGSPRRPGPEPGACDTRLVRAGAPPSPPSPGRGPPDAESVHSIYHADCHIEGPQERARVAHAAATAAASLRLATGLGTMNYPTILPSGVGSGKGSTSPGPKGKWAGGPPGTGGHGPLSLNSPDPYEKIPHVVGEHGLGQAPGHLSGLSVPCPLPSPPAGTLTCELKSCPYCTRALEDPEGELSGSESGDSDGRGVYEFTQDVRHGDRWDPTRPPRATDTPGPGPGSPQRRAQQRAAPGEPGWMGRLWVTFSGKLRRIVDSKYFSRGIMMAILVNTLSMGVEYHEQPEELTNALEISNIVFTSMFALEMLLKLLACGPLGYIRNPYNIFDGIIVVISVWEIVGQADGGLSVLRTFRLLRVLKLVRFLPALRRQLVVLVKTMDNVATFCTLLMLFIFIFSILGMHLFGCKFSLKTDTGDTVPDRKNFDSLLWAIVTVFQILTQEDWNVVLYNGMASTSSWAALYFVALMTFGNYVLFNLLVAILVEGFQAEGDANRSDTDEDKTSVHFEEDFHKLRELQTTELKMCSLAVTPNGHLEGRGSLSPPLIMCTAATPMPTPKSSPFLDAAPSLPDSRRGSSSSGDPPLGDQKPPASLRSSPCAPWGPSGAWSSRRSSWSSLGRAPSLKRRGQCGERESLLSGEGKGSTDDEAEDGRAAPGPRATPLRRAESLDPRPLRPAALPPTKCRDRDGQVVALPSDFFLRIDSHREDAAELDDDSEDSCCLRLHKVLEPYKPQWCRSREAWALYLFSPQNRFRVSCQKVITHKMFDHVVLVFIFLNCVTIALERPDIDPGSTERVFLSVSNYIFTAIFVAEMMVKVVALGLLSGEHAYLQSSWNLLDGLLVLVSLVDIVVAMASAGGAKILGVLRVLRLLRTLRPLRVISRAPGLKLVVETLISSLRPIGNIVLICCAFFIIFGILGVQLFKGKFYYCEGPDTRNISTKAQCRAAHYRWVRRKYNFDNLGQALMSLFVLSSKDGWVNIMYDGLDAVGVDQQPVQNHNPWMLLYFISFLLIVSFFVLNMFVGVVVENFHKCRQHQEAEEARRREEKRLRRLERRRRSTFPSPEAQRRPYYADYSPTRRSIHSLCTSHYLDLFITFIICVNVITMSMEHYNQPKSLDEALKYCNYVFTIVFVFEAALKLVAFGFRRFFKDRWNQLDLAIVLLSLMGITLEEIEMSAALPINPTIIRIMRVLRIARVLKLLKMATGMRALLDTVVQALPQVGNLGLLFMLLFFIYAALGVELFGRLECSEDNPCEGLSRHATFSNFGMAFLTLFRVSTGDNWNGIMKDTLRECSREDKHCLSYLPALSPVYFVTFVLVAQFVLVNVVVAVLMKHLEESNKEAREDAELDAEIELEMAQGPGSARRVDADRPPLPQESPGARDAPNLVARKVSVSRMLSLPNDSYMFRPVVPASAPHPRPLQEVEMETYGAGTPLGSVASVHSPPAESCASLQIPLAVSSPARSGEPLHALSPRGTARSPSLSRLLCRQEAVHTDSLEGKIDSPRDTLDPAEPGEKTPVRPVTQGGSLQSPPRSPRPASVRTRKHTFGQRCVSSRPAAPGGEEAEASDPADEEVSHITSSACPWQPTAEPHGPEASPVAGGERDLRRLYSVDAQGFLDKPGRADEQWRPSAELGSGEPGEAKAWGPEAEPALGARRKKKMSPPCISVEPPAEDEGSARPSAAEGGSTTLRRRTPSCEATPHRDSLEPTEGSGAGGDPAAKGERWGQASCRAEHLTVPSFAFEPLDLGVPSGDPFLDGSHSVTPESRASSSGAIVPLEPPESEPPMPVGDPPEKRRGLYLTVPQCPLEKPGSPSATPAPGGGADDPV
Data set [4] in a line: cells. Type of data set: functional.
Data set [5] is described as follows: microbe, parasite or virus in culture. Type of data set: functional. Particulars: Mycobacterium tuberculosis.
For data set [6], the target named is T1, Ubiquitin-conjugating enzyme E2 N (Homo sapiens, UniProt P61088).
T1 sequence (P61088 whole entry): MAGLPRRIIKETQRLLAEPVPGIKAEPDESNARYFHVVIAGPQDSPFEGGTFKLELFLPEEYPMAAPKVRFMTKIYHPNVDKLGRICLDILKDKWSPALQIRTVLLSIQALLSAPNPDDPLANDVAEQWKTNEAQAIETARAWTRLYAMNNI
The class given is functional.

Data set [7] concerns the target T1, Ubiquitin-conjugating enzyme E2 N. The class given is functional. This is another data set of the same source.
Data set [8] addresses T2, Bcl-2-related protein A1 (Mus musculus, UniProt Q07440).
T2 sequence (Q07440 whole entry): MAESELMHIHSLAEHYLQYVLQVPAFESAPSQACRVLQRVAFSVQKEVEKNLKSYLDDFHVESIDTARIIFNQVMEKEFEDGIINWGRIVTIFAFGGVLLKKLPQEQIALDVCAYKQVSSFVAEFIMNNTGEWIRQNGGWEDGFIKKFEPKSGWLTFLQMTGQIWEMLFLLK
Type of data set: functional.

The target in data set [9] is T3, Short transient receptor potential channel 4 (Mus musculus, UniProt Q9QUQ5).
T3 sequence (Q9QUQ5 whole entry): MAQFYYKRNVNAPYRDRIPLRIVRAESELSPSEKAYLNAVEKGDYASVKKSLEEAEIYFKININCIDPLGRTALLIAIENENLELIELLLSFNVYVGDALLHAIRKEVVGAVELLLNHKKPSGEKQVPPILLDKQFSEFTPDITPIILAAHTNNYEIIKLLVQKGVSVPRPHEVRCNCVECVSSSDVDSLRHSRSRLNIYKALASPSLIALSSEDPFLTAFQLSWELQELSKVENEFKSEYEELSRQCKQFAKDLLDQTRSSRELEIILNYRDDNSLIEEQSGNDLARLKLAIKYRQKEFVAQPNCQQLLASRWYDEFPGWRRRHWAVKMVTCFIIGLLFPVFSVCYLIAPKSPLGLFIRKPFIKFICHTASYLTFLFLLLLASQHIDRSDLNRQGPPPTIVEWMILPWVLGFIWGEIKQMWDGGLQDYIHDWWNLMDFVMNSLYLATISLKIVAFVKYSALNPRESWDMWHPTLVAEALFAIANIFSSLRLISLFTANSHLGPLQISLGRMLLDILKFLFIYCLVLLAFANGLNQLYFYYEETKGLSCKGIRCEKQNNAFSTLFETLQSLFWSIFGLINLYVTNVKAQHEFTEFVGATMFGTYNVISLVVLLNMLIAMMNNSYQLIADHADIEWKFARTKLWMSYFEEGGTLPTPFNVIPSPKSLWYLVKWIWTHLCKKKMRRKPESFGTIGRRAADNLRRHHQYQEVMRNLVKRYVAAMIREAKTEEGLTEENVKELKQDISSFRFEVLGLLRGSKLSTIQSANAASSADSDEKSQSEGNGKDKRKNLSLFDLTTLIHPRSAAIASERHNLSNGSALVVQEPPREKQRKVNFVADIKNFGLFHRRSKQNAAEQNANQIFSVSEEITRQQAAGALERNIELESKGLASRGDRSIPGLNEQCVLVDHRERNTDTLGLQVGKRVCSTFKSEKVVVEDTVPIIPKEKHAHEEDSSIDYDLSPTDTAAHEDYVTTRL
Briefly: calcium entry via TRPC4 opening agents – cell-based, HEK293 TRPC4/mu-opioid, Fluo-4 calcium, dose response (AID 434937). The class given is functional.

Data set [10] has as its target Cytochrome P450 3A4 (Homo sapiens, UniProt P08684).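 Note: CYP3A4 tested as one member of a cytochrome P450 panel screen.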
The target in data set [11] is T4, Aminopeptidase N (Plasmodium falciparum FcB1/Columbia, UniProt O96935).
T4 sequence (O96935 whole entry): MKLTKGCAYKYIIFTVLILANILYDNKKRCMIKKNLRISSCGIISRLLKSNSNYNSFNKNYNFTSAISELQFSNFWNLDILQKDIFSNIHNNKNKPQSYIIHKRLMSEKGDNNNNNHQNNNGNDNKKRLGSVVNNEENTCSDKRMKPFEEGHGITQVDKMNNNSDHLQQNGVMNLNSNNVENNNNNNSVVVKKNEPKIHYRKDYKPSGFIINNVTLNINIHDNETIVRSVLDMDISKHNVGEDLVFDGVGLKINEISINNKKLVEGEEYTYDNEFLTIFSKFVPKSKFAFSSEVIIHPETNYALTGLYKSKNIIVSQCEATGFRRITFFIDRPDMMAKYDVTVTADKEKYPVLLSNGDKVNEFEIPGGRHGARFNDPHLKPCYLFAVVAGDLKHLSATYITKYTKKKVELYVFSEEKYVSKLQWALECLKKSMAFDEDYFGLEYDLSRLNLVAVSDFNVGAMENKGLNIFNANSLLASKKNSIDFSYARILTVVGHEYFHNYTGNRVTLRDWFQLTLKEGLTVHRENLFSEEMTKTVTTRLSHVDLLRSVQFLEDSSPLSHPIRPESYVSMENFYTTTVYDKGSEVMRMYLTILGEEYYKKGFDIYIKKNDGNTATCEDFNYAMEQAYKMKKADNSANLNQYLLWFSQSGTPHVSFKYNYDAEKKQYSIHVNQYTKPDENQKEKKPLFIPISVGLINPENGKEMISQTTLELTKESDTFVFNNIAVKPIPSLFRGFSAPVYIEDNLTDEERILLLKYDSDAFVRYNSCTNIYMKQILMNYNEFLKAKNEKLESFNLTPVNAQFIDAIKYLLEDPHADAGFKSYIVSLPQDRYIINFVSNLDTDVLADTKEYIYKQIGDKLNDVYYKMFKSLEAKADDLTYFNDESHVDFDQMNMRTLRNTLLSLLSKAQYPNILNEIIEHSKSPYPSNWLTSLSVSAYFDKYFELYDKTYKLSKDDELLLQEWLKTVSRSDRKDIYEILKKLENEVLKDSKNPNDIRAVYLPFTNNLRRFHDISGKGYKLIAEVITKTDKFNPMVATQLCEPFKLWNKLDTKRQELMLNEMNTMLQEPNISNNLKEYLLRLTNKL
Briefly: malaria alanyl aminopeptidase activity blockers – biochemical, fluorogenic H-Leu-NHMec substrate, 1536-well (AID 1445). Details: species or system Plasmodium falciparum 3D7, 3D7.

Data set [12] concerns the target Cytochrome P450 2C9 (Homo sapiens, UniProt P11712).
The subject of data set [13] is Streptococcus. Briefly: GAS UMAA2166 growth inhibition – luminescence, BacTiterGlo, counter-screen for streptokinase expression inhibitor project, dose response (AID 1915).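 Note: potency for reduction of bacterial viability or growth.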 The class given is functional, organism-based. On the technique in general: A counterscreen serves to expose hits that act by an unwanted route or on another target.
In data set [14] the test system is Streptococcus sp. 'group A'. Briefly: Streptococcus pyogenes SK(-)GAS viability under kanamycin – luminescence, BacTiterGlo, confirmation, counter-screen for streptokinase expression inhibitor project, dose response (AID 1900). The class given is functional, organism-based.
The target of data set [15] is Cytochrome P450 2C19 (Homo sapiens, UniProt P33261). Kind of data set: Cytochrome panel assay with activity outcomes. Panel member name: p450-cyp2c19 Compounds with AC50 equal or less than 10 uM are considered active. The class given is functional. The settings on record: read-out: AC50.
Cytochrome P450 2C19, sequence (P33261 whole entry): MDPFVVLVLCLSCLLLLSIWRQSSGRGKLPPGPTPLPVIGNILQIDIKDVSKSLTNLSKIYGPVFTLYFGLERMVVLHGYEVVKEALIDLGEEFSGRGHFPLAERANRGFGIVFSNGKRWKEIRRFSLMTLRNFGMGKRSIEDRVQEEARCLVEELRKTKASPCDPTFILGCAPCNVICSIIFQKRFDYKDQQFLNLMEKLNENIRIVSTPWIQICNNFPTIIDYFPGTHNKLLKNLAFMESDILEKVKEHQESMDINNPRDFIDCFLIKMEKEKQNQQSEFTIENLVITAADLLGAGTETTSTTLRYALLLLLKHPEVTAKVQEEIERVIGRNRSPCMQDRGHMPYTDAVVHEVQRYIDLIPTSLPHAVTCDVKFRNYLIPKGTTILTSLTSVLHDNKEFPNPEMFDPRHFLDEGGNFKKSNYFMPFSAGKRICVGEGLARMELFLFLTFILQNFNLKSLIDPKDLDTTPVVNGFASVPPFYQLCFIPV
Data set [16] deals with T5, Streptokinase A (Streptococcus pyogenes serotype M1, UniProt P10520).
T5 sequence (P10520 whole entry): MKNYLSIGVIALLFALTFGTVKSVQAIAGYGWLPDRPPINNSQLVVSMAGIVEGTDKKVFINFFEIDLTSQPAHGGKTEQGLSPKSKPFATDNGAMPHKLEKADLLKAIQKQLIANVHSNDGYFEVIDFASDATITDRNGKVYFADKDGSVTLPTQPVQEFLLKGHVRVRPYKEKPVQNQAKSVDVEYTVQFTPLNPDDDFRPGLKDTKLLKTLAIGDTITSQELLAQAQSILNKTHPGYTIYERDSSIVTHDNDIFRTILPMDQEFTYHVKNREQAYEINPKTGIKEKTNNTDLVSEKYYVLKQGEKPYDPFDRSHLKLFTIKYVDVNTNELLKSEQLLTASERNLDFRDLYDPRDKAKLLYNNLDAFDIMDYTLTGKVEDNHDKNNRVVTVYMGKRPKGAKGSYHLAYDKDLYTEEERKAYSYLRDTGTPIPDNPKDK
Kind of data set: viability-normalized secreted streptokinase activity reduction – plasminogen activation absorbance, OD405, dose response (AID 1914).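 Note: secreted streptokinase activity via plasminogen activation per viability signal from cell pellet.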 The class given is functional, Streptococcus pyogenes M1 GAS.

Cytochrome P450 3A4, sequence (P08684 whole entry): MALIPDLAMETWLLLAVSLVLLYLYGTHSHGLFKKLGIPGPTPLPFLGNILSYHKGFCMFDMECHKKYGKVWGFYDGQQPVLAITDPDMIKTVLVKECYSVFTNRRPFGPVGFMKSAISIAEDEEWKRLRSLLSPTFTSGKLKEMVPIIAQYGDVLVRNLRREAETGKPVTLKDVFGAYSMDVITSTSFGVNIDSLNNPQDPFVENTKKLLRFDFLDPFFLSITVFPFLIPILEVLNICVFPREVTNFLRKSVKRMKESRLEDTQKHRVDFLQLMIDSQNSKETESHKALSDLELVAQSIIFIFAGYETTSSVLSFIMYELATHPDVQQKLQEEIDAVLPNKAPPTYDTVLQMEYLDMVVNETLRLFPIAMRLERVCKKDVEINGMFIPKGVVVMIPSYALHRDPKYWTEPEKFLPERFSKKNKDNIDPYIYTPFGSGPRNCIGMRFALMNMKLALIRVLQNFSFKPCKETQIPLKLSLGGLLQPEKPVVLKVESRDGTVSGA
Cytochrome P450 2C9, sequence (P11712 whole entry): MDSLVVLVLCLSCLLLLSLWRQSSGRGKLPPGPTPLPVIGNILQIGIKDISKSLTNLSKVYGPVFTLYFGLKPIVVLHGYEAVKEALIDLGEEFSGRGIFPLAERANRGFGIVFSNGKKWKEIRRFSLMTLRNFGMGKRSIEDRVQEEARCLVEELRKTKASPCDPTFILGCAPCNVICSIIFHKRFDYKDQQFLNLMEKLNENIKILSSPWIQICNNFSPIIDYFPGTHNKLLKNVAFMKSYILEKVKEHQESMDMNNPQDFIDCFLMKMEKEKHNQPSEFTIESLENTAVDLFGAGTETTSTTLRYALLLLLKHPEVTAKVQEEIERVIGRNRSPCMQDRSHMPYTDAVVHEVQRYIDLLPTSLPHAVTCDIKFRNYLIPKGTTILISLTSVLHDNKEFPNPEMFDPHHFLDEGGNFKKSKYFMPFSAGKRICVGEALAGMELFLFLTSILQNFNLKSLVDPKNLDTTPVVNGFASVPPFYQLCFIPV

Broadly, the EC50 is the concentration needed to bring the measured effect to its halfway point. A word on the IC50: it is the concentration needed to halve the response being measured. Turning to `O=C(NCC1CCN(c2ccc(S(=O)(=O)N3CCOCC3)cc2)CC1)c1ccc(Cl)cc1`, the CC50 is > 20 µM (active) in data set [1], > 40 µM (active) in data set [2] and > 40 µM (active) in [5]. The EC50 in data set [3] was 21.2 µM (active). Also, the IC50 in data set [4] is 31.3 µM (active). As for `COc1ccccc1OCc1nc(Cc2ccc(Cl)cc2)no1`, the EC50 in data set [3] was 7.9 µM (active). On to `Cc1ccc(-c2oc3ncnc(N)c3c2-c2ccc(C)cc2)cc1`, for which the IC50 in data set [6] is 12.5 µM (active); in data set [7], 4.6 µM (active); in data set [8], > 20 µM (inactive). For `CSc1ccc(C(=O)NCC(c2ccco2)N(C)C)cc1[N+](=O)[O-]` (stereo not given), the EC50 in data set [9] is 0.0333 µM (active). For orientation: AC50 means the midpoint of the concentration-response curve, whichever way the signal moves. As to `CN1CCN(c2ncc3nc(-c4ccc(Cl)cc4)c(=O)n(C4CC4)c3n2)CC1`, the AC50 entry in data set [10] is on record as “inconclusive”.

For `O=C(Cn1nnc2ccccc2c1=O)N[C@@H](Cc1c[nH]c2ccccc12)C(=O)O`, in data set [11], the IC50 is 71.6 µM (active). In the case of `Cc1nn(-c2ccccc2)c(Cl)c1/C=C1\SC(=S)NC1=O`, in data set [11], the IC50 was 46.8 µM (active).

Regarding `Cc1ccc(-n2nnnc2-c2cnc(N3CCCC3)nc2C(F)(F)F)cc1`, the EC50 in data set [3] was 8.9 µM (active). Take `CCc1nnc(NS(=O)(=O)c2ccc(NC(=S)NC(=O)c3ccc(OC)cc3)cc2)s1`: in data set [11], the IC50 is 60.5 µM (active). `Cn1c(=O)c2c(ncn2Cc2cccc(Cl)c2)n(C)c1=O`: the results for the IC50 in [6], in data set [7] and in [8] were 10.4 µM (active), 11.2 µM (active) and > 20 µM (inactive), respectively. As to `COc1ccc(C(CNc2nc(-c3cccnc3)nc3ccccc23)N(C)C)cc1` (stereo not given), the EC50 in data set [9] was 0.473 µM (active). Take `COCCNC(=O)Cn1cnc2ccc(S(=O)(=O)N3CCC(C)CC3)cc2c1=O`: the AC50 entry in [10] is “inconclusive”; in data set [12], 10 µM (inconclusive). In the case of `CC(=O)Nc1ccc(C2(c3ccc(NC(C)=O)cc3)C(=O)Nc3ccccc32)cc1`, the EC50 in data set [9] was 1.5 µM (active).

For `CC1CCN(S(=O)(=O)c2ccc(NC(=O)Cc3ccccc3)cc2)CC1`, in data set [3], the EC50 is 5.25 µM (active).

Regarding `O=C(CCCc1c[nH]c2ccccc12)NCc1ccc2c(c1)OCO2`, in data set [3], the EC50 was 2.31 µM (active). As for `CC(C)c1ccc(OCC(=O)NNC(=S)NC(=O)C2CC2)cc1`, the IC50 in data set [6] is 17.3 µM (active); in [7], 6.97 µM (active); in data set [8], > 20 µM (inactive). Moreover, the EC50 in [13] was 1.33 µM (active); in data set [14], 0.85 µM (active). Regarding `Cc1ccc(-c2nn(C)c(=O)c3ccccc23)cc1CNC(=O)c1ccco1`, the IC50 in data set [11] is 21.1 µM (active). Take `CCOc1cccc(OCCCNCCCOC)c1`: the AC50 was 28.2 µM (inconclusive) in [15] and “inconclusive” in data set [10]. Take `COc1ccc(C(CNC(=O)c2cccc(NS(=O)(=O)c3ccc(C)c(F)c3)c2)N(C)C)cc1` (stereo not given): the EC50 in data set [9] was 5.31 µM (active). In the case of `CN(C)C(CNC(C(=O)Nc1ccc(F)cc1)c1ccccc1)c1ccccc1` (stereo not given), the EC50 in data set [9] is 0.596 µM (active). Take `O=C(N/N=C/c1ccc([N+](=O)[O-])o1)c1ccc(NS(=O)(=O)c2cccs2)cc1`: the CC50 is 12.9 µM (active) in [1] and 15.9 µM (active) in [2]. The EC50 is > 150 µM (not active) in data set [16], 6.83 µM (active) in data set [13] and 1.24 µM (active) in [14]. The IC50 in data set [4] is 7.09 µM (active). For the compound `Nc1nonc1C(=O)N/N=C/c1ccc(-c2ccc(Cl)c(C(=O)O)c2)o1`, in data set [11], the IC50 was 43.8 µM (active). As to `CN(C)C/C=C/C(=O)Nc1cccc(-c2c[nH]c3ncnc(Oc4ccc(NC(=O)CC(=O)Nc5ccc(F)cc5)cc4F)c23)c1`, the IC50 in [6] is 3.5 µM (active); in data set [7], 2.28 µM (active); in data set [8] it was > 20 µM (inactive).

As to `Cc1ccc(CSc2nnc(SCC(=O)N/N=C/c3ccccc3OCC(=O)O)s2)cc1`, the IC50 in [11] was 30.6 µM (active).
